Legend:
[1] = tested on: Sporothrix schenkii B62482; assay: Antifungal activity in vitro (resazurin susceptibility screen), Inf. A; format: cell-based; settings: 27 °C, 4 days, resa time 24 hours; for IC50: Sporothrix, B62482, Sporothrix schenkii B62482; for pIC50 Inf. A: Sporothrix schenkii B62482
Protocol: (§1) The standard susceptibility screen was performed in 96-well plates (U-bottom, Greiner Bio-One). Serial dilutions (2-fold or 4-fold) of 20 mM compound stock solutions were made in 100% DMSO, followed by an intermediate dilution step in water. These serial dilutions (10 μl) were then spotted onto test-plates that could be stored in the dark at 4° C. for a maximum period of 2 weeks. An adequate broad dose-range was included with 64 μM as the highest in-test concentration. The culture medium RPMI-1640 was supplemented with L-glutamine, 2% glucose and buffered with 3-(N-morpholino)-propanesulfonic acid (MOPS) at pH 7.0±0.1. The different fungal species/isolates (Table 3a) were cryopreserved and 1/1000 diluted in medium just prior to use. A standard inoculum of 200 μl containing 10^3 colony-forming unit (cfu) was then added to each well. A positive control (100% growth=fungal culture without antifungal) and a negative control (0% growth=RPMI-MOPS medium) were included on each plate. Optimal incubation time and temperature were dependent on the fungal species and vary from 24 h for yeasts (37° C.) to one week or more for dermatophytes (27° C.). Inhibition of fungal growth was measured after adding 10 μl of 0.005% (w/v) resazurin (Sigma Aldrich) to each well, based on the principle that living cells convert the non-fluorescent blue resazurin into the pink and fluorescent resorufin, allowing fluorimetric reading (λhd ex 550 nm and μem 590 nm) after an additional incubation period (‘resa’ time mentioned in Table 3a). [table]

[2] = tested on: Aspergillus fumigatus B42928; assay: Antifungal activity in vitro (resazurin susceptibility screen), Inf. E; format: cell-based; settings: 27 °C, 48 hours, resa time 17 hours; for IC50: Aspergillus fumigatus, B42928, Aspergillus fumigatus B42928; for pIC50 Inf. E: Aspergillus fumigatus B42928
Protocol: as §1

[3] = tested on: Cryptococcus neoformans B66663; assay: Antifungal activity in vitro (resazurin susceptibility screen), Inf. F; format: cell-based; settings: 37 °C, 24 hours, resa time 4 hours; for IC50: Cryptococcus neoformans, B66663, Cryptococcus neoformans B66663; for pIC50 Inf. F: Cryptococcus neoformans B66663
Protocol: as §1

[4] = tested on: Trichophyton mentagrophytes B70554; assay: Antifungal activity in vitro (resazurin susceptibility screen), Inf. G; format: cell-based; settings: 27 °C, 7 days, resa time 24 hours; for IC50: Trichophyton mentagrophytes, B70554, Trichophyton mentagrophytes B70554; for pIC50 Inf. G: Trichophyton mentagrophytes B70554
Protocol: as §1

[5] = tested on: Trichophyton rubrum B68183; assay: Antifungal activity in vitro (resazurin susceptibility screen), Inf. C; format: cell-based; settings: 27 °C, 7 days, resa time 24 hours; for IC50: Trichophyton rubrum, B68183, Trichophyton rubrum B68183; for pIC50 Inf. C: Trichophyton rubrum B68183
Protocol: as §1

[6] = tested on: Candida parapsilosis B66126; assay: Antifungal activity in vitro (resazurin susceptibility screen), Inf. D; format: cell-based; settings: 37 °C, 24 hours, resa time 4 hours; for IC50: Lodderomyces parapsilosis, B66126, Candida parapsilosis B66126; for pIC50 Inf. D: Candida parapsilosis B66126
Protocol: as §1

[7] = tested on: Microsporum canis B68128; assay: Antifungal activity in vitro (resazurin susceptibility screen), Inf. B; format: cell-based; settings: 27 °C, 9 days, resa time 24 hours; for IC50: Microsporum canis, B68128, Microsporum canis B68128; for pIC50 Inf. B: Microsporum canis B68128
Protocol: as §1

[8] = tested on: Rhizopus oryzae IHEM5223; assay: Antifungal activity in vitro (resazurin susceptibility screen), Inf. J; format: cell-based; settings: Rhizopus arrhizus, 37 °C, 24 hours, resa time 6 hours
Protocol: as §1

[9] = tested on: Scedosporium apiospermum IHEM3817; assay: Antifungal activity in vitro (resazurin susceptibility screen), Inf. H; format: cell-based; settings: 37 °C, 48 hours, resa time 17 hours; for IC50: Scedosporium apiospermum, IHEM3817, Scedosporium apiospermum IHEM3817
Protocol: as §1

[10] = tested on: Mucor circinelloides IHEM21105; assay: Antifungal activity in vitro (resazurin susceptibility screen), Inf. L; format: cell-based; settings: 27 °C, 48 hours, resa time 17 hours
Protocol: as §1

[11] = tested on: Scedosporium prolificans IHEM21157; assay: Antifungal activity in vitro (resazurin susceptibility screen), Inf. I; format: cell-based; settings: Lomentospora prolificans, 37 °C, 48 hours, resa time 17 hours
Protocol: as §1

[12] = tested on: Rhizomucor miehei IHEM13391; assay: Antifungal activity in vitro (resazurin susceptibility screen), Inf. K; format: cell-based; settings: 37 °C, 48 hours, resa time 17 hours; for IC50: Rhizomucor miehei, IHEM13391, Rhizomucor miehei IHEM13391
Protocol: as §1

Structure (SMILES) | IC50 [1] [µM] | IC50 [2] [µM] | IC50 [3] [µM] | IC50 [4] [µM] | IC50 [5] [µM] | IC50 [6] [µM] | melting point [°C] | IC50 [7] [µM] | IC50 [8] [µM] | IC50 [9] [µM] | IC50 [10] [µM] | IC50 [11] [µM] | IC50 [12] [µM] | further results
CC(F)(F)c1ccc(C2=NCc3ccc(Cl)c(Cl)c3-n3cccc32)cc1 [Compound 22, 9,10-dichloro-4-[4-(1,1-difluoroethyl)phenyl]-6H-pyrrolo[1,2-a][1,4]benzodiazepine] | > 64.6 | > 64.6 | > 64.6 | > 64.6 | 7.76 | > 64.6 | 140.9 to 142.1 | 7.76 | – | – | – | – | – | –
CC(F)(F)c1ccc(C2=NCc3c(F)cc(F)cc3-n3cccc32)cc1 [Compound 18, 4-[4-(1,1-difluoroethyl)phenyl]-7,9-difluoro-6H-pyrrolo[1,2-a][1,4]benzodiazepine] | 8.13 | 0.501 | 1.62 | 1.1 | 0.148 | 2.34 | – | 2.14 | > 64.6 | > 64.6 | > 64.6 | 0.794 | 50.1 | –
CC(F)(F)c1cc(C2=NCc3c(F)cccc3-n3cccc32)ccc1F [Compound 20, 4-[3-(1,1-difluoroethyl)-4-fluorophenyl]-7-fluoro-6H-pyrrolo[1,2-a][1,4]benzodiazepine] | > 64.6 | 0.112 | > 64.6 | 0.794 | 0.145 | 12.9 | – | 0.513 | > 64.6 | 0.575 | > 64.6 | 0.158 | 26.9 | –
CC(F)(F)c1ccc(C2NCc3c(Cl)cccc3-n3cccc32)cc1.Cl [Compound 2, (4S)-7-chloro-4-[4-(1,1-difluoroethyl)phenyl]-5,6-dihydro-4H-pyrrolo[1,2-a][1,4]-benzodiazepine.HCl] | – | – | – | – | – | – | 206.7 to 207.6 | – | – | – | – | – | – | pIC50 Inf. A [1]: <4.19; pIC50 Inf. E [2]: <4.19; pIC50 Inf. F [3]: <4.19; pIC50 Inf. G [4]: 5.43; pIC50 Inf. C [5]: 5.82; pIC50 Inf. D [6]: <4.19; pIC50 Inf. B [7]: 5.09
CC(F)(F)c1ccc(C2=NCc3c(F)cccc3-n3cccc32)cc1 [Compound 15, 4-[4-(1,1-difluoroethyl)phenyl]-7-fluoro-6H-pyrrolo[1,2-a][1,4]benzodiazepine] | > 64.6 | 0.224 | > 64.6 | 0.251 | 0.0427 | 0.631 | – | 0.49 | 33.9 | > 64.6 | > 64.6 | 2.51 | > 64.6 | –
CC(F)(F)c1ccc(C2=NCc3c(Cl)ccc(Cl)c3-n3cccc32)cc1 [Compound 8, 7,10-dichloro-4-[4-(1,1-difluoroethyl)phenyl]-6H-pyrrolo[1,2-a][1,4]benzodiazepine] | > 64.6 | > 64.6 | > 64.6 | 60.3 | 3.02 | > 64.6 | 162.3 to 163.5 | 3.98 | – | – | – | – | – | –
CC(F)(F)c1ccc(C2NCc3c(Cl)cc(F)cc3-n3cccc32)cc1.Cl (stereo not drawn) [Compound 24, 7-chloro-4-[4-(1,1-difluoroethyl)phenyl]-9-fluoro-5,6-dihydro-4H-pyrrolo[1,2-a][1,4]-benzodiazepine.HCl] | > 64.6 | 11.5 | > 64.6 | 1.7 | 0.617 | 2.63 | 240 to 240.7 | 7.76 | – | – | – | – | – | –
CC(F)(F)c1ccc(C2NCc3c(Cl)cccc3-n3cccc32)cc1.Cl [Compound 3, (4R)-7-chloro-4-[4-(1,1-difluoroethyl)phenyl]-5,6-dihydro-4H-pyrrolo[1,2-a][1,4]-benzodiazepine.HCl] | – | – | – | – | – | – | 206.3 to 206.8 | – | – | – | – | – | – | pIC50 Inf. A [1]: <4.19; pIC50 Inf. E [2]: 5.70; pIC50 Inf. F [3]: 5.26; pIC50 Inf. G [4]: 6.36; pIC50 Inf. H ([9]; Scedosporium apiospermum IHEM3817): 5.13; pIC50 Inf. C [5]: 6.96; pIC50 Inf. D [6]: 5.58; pIC50 Inf. B [7]: 6.30; pIC50 Inf. K ([12]; Rhizomucor miehei IHEM13391): 4.59

From patent US9637490B2, “Antifungal 5,6-dihydro-4-[(difluoroethyl)phenyl]-4H-pyrrolo[1,2-α][1,4]benzodiazepine and 4-(difluoroethyl)phenyl-6H-pyrrolo[1,2-α][1,4]benzodiazepine derivatives” (Janssen Pharmaceutica NV, priority 2010, dated 2017)
